Values joined by “and” are separate entries in the source; they are usually repeats but may differ in a detail not shown here. Identical values can stand only once. Values belong to the molecule of their own block, whether it stands above or below them.
Tested on: Rattus norvegicus
Settings: for NEL / LOAEL / NOAEL / LEL: inhalation
[1] = short-term, duration: 3 days, injection, subcutaneous, F, Crj:CD, uterus: uterine dry weight (absolute)
[2] = short-term, duration: 3 days, injection, subcutaneous, F, Sprague-Dawley, uterus: absolute blotted uterine weight
[3] = short-term, duration: 10 days, oral, gavage, M, BrlHan:WIST, body weight
[4] = short-term, duration: 10 days, oral, gavage, M, BrlHan:WIST, male accessory sex gland: BC/LA weight (relative)
[5] = short-term, duration: 10 days, oral, gavage, M, BrlHan:WIST, male accessory sex gland: relative bulbourethral gland weight in the presence of TP + male accessory sex gland: relative seminal vesicle …
[6] = short-term, duration: 10 days, oral, gavage, M, BrlHan:WIST, male accessory sex gland: relative ventral prostate weight in the presence of TP
[7] = reproduction developmental, duration: 9 days, F, Crl:CD(SD) BR, generation: P0, P0: Whole Body: Maternal Body Weight Change
[8] = reproduction developmental, duration: 9 days, F, Sprague-Dawley, generation: P0, P0: General Toxicity: Whole Body: Clinical Observations + P0: General Toxicity: Whole Body: Maternal Body Weight Change
[9] = short-term, duration: 4 weeks, F, Wistar, Multi-organ: Inorganic Phosphorous (PHOS), Blood
[10] = short-term, duration: 4 weeks, M, Wistar, Blood: Partial Thromboplastin Time (PTT) + Liver: Cytoplasmic Vacuolation, Fatty Hepatocellular
[11] = subchronic, duration: 90 days, F, RccHan (Wist), Blood: Large Unstained Cells + Blood: Lymphocyte + Blood: Monocytes
[12] = subchronic, duration: 90 days, F, Wistar, General Toxicity: Whole Body: Body Weight Change + Immune: Blood: Large Unstained Cells + Immune: Blood: Lymphocyte + Immune: Blood: …
[13] = subchronic, duration: 90 days, F, Wistar, Immune: Blood: Large Unstained Cells + Immune: Blood: Lymphocyte + Immune: Blood: Monocytes + Immune: Blood: White Blood Cell (WBC)
[14] = subchronic, duration: 90 days, M/F, Wistar, Immune: Blood: Basophils + Immune: Blood: Eosinophils + Immune: Blood: Neutrophils
[15] = subchronic, duration: 90 days, M, RccHan (Wist), Blood: Lymphocyte + Blood: Monocytes + Blood: White Blood Cell (WBC)
[16] = subchronic, duration: 90 days, M, Wistar, General Toxicity: Whole Body: Body Weight Change + Immune: Blood: Large Unstained Cells + Immune: Blood: Lymphocyte + Immune: Blood: …
[17] = subchronic, duration: 90 days, M, Wistar, Immune: Blood: Large Unstained Cells + Immune: Blood: Lymphocyte + Immune: Blood: Monocytes + Immune: Blood: White Blood Cell (WBC)

SMILES: CCC(C)(c1ccc(O)cc1)c1ccc(O)cc1 [Bisphenol B]
LOEL [1]: 200 mg/kg-day
NOEL [1]: 20 mg/kg-day
LOEL [2]: 200 mg/kg-day
NOEL [2]: 20 mg/kg-day
LOEL [3]: 600 mg/kg-day
NOEL [3]: 200 mg/kg-day
NOEL (short-term, duration: 10 days, oral, gavage, M, BrlHan:WIST, body weight in the presence of TP + body weight the absence of TP + male accessory sex gland: relative bulbourethral gland weight in the …): 600 mg/kg-day
LOEL [4]: 200 mg/kg-day
NOEL [4]: 50 mg/kg-day
NOEL (short-term, duration: 10 days, oral, gavage, M, BrlHan:WIST, male accessory sex gland: Cowper's gland weight (relative) + male accessory sex gland: glans penis weight (relative) + male accessory sex …): 600 mg/kg-day
LOEL [5]: 600 mg/kg-day
NOEL [5]: 200 mg/kg-day
LOEL [6]: 200 mg/kg-day
NOEL [6]: 50 mg/kg-day

NEL (reproduction developmental, duration: 9 days, F, Crl:CD(SD) BR, generation: P0, P0: Liver: Liver Weight, Unspecified + P0: Ovary: Corpora Lutea + P0: Uterus: Implantation + P0: Uterus: Resorptions, Early + P0: Uterus: …): 704000 mg/m3 and 705000 mg/m3
NEL (short-term, duration: 4 weeks, F, Wistar, Adrenal: Adrenal Gland Weight, Absolute + Adrenal: Adrenal Gland Weight, Relative + Blood: Partial Thromboplastin Time (PTT) + Blood: …): 101000 mg/m3
LEL [9]: 101000 mg/m3
NEL [9]: 20100 mg/m3
NEL (short-term, duration: 4 weeks, M, Wistar, Adrenal: Adrenal Gland Weight, Absolute + Adrenal: Adrenal Gland Weight, Relative + Blood: Prothrombin Time (PT) + Kidney: Kidney Weight, …): 101000 mg/m3
LEL [10]: 101000 mg/m3
NEL [10]: 20100 mg/m3
LEL [11]: 30600 mg/m3
NEL [11]: 10100 mg/m3
NEL (subchronic, duration: 90 days, M/F, RccHan (Wist), Blood: Activated Partial Thromboplastin Time (APTT) + Blood: Basophils + Blood: Calcium (CA), Blood + Blood: Chloride (CL), Blood + Blood: …): 103000 mg/m3
LEL [15]: 103000 mg/m3
NEL [15]: 30600 mg/m3
SMILES: C=CC(F)(F)C(F)(F)C(F)(F)C(F)(F)F [3,3,4,4,5,5,6,6,6-Nonafluorohexene]
NEL (developmental, duration: 9 days, M/F, Crl:CD(SD) BR, generation: F1, F1: Uterus: Fetuses, Dead + F1: Uterus: Fetuses, Live + F1: Whole Body: Body Weight, Fetal + F1: Whole Body: External Abnormalities + F1: …): 704000 mg/m3 and 705000 mg/m3
LOAEL (developmental, duration: 9 days, Sprague-Dawley, generation: F1, F1: Developmental: Skeleton: Skeletal Malformation + F1: Developmental: Skeleton: Skeletal Ossification Variations + F1: Developmental: Soft…): 705000 mg/m3 and 704000 mg/m3
NOAEL (developmental, duration: 9 days, Sprague-Dawley, generation: F1, F1: Developmental: Whole Body: External Abnormalities): 70000 mg/m3
LEL [7]: 704000 mg/m3 and 705000 mg/m3
NEL [7]: 10100 mg/m3
LOAEL (reproduction developmental, duration: 9 days, F, Sprague-Dawley, generation: P0, P0: Developmental: Uterus: Implantation + P0: Developmental: Uterus: Resorptions, Early + P0: Developmental: Uterus: Resorptions, Late + P0…): 705000 mg/m3 and 704000 mg/m3
LOAEL [8]: 705000 mg/m3 and 704000 mg/m3
NOAEL [8]: 10100 mg/m3
NEL (subchronic, duration: 90 days, F, RccHan (Wist), Blood: White Blood Cell (WBC) + Whole Body: Body Weight Change): 103000 mg/m3
NOAEL (subchronic, duration: 90 days, F, Wistar, General Toxicity: Whole Body: Body Weight Change): 103000 mg/m3
LOAEL [12]: 30600 mg/m3
NOAEL [12]: 10100 mg/m3
LOAEL [13]: 30600 mg/m3
NOAEL [13]: 10100 mg/m3
LOAEL (subchronic, duration: 90 days, M/F, Wistar, Endocrine: Blood: Glucose (GLU) + Endocrine: Blood: Triglycerides (TRIG) + Endocrine: Serum: Cholesterol (CHOL), Total + General Toxicity: …): 30600 mg/m3
LOAEL [14]: 30600 mg/m3
NOAEL [14]: 10100 mg/m3
NEL (subchronic, duration: 90 days, M, RccHan (Wist), Blood: Large Unstained Cells + Whole Body: Body Weight Change): 103000 mg/m3
NOAEL (subchronic, duration: 90 days, M, Wistar, General Toxicity: Whole Body: Body Weight Change): 103000 mg/m3
LOAEL [16]: 30600 mg/m3
NOAEL [16]: 10100 mg/m3
LOAEL [17]: 30600 mg/m3
NOAEL [17]: 10100 mg/m3
